As a reminder, the IC50 is the point on the concentration scale where inhibition reaches its midpoint. Lower therefore signals greater potency in that assay.

Counter-ions that a name gives are not always drawn.

In patent US7932246B2, “Histone deacetylase inhibitors” (Chroma Therapeutics Ltd., priority 2005, dated 2011) one finds IC50 data, which are given here for 21 compounds.

In one experiment the test system is U937. As to the kind of experiment: U937 cell inhibition assay (WST-1 cell viability). The experiment is classed as cell-based. The note with it: Homo sapiens, U-937; U937 cells, 72-96 h, WST-1 assay, IC50 range. Here is the method: (§1) Cancer cell lines (U937 and HUT) growing in log phase were harvested and seeded at 1000-2000 cells/well (100 μl final volume) into 96-well tissue culture plates. Following 24 h of growth cells were treated with compound. Plates were then re-incubated for a further 72-96 h before a WST-1 cell viability assay was conducted according to the suppliers (Roche Applied Science) instructions.
(§2) Data were expressed as a percentage inhibition of the control, measured in the absence of inhibitor, as follows:— % inhibition=100−[(S^i/S^o)×100] where S^i is the signal in the presence of inhibitor and S^o is the signal in the presence of DMSO.
(§3) Dose response curves were generated from 8 concentrations (top final concentration 10 μM, with 3-fold dilutions), using 6 replicates.
(§4) IC50 values were determined by non-linear regression analysis, after fitting the results to the equation for sigmoidal dose response with variable slope (% activity against log concentration of compound), using Graphpad Prism software.
(§5) IC50 results were allocated to one of 3 ranges as follows: […]
On the technique in general: Tetrazolium assays rely on reduction of a dye to a coloured formazan, in cell work by metabolically active cells.

Experiment [1] addresses histone deacetylase activity (HeLa nuclear extract). Kind of experiment: HDAC fluorescent activity assay (Biomol, Fluor de Lys substrate). Type of experiment: biochemical. Conditions: IC50 range. The method, then:
The ability of compounds to inhibit histone deacetylase activities was measured using the commercially available HDAC fluorescent activity assay from Biomol. In brief, the Fluor de Lys™ substrate, a lysine with an epsilon-amino acetylation, is incubated with the source of histone deacetylase activity (HeLa nuclear extract) in the presence or absence of inhibitor. Deacetylation of the substrate sensitises the substrate to Fluor de Lys™ developer, which generates a fluorophore.
Data are expressed as a percentage of the control, measured in the absence of inhibitor, with background signal being subtracted from all samples, as follows:— % activity=[(S^i−B)/(S^o−B)]×100 where S^i is the signal in the presence of substrate, enzyme and inhibitor, S^o is the signal in the presence of substrate, enzyme and the vehicle in which the inhibitor is dissolved, and B is the background signal measured in the absence of enzyme.
Histone deacetylase activity from crude nuclear extract derived from HeLa cells was used for screening. The preparation, purchased from 4C (Seneffe, Belgium), was prepared from HeLa cells harvested whilst in exponential growth phase. The nuclear extract is prepared according to Dignam JD1983 Nucl. Acid. […] The final buffer composition was 20 mM Hepes, 100 mM KCl, 0.2 mM EDTA, 0.5 mM DTT, 0.2 mM PMSF and 20% (v/v) glycerol.

For another experiment, the system named is HUT. As to the kind of experiment: HUT cell inhibition assay (WST-1 cell viability). Type of experiment: cell-based. Conditions: HUT cells, 72-96 h, WST-1 assay, IC50 range. The method, then: as §1, §2, §3, §4, §5
The next experiment has as its system HeLa cells. As to the kind of experiment: HeLa cell inhibition assay (SRB cell viability). The experiment is classed as cell-based. The note with it: Homo sapiens, HeLa, 72 h, IC50 range. Here is the method: HeLa cells growing in log phase were harvested and seeded at 1000 cells/well (200 μl final volume) into 96-well tissue culture plates. Following 24 h of cell growth cells were treated with compounds (final concentration of 20 μM). Plates were then re-incubated for a further 72 h before a sulphorhodamine B (SRB) cell viability assay was conducted according to Skehan 1990 J Natl Canc Inst 82, 1107-1112.
as §2
IC50 values were determined by non-linear regression analysis, after fitting the results of eight data points to the equation for sigmoidal dose response with variable slope (% activity against log concentration of compound), using Graphpad Prism software.
as §5

On to `O=C(NO)c1cnc(N2CC3C(C2)C3NS(=O)(=O)c2ccc3ccccc3c2)nc1` (stereo not drawn) [Example 1, N-Hydroxy 2-{6-[(2-naphthylsulfonyl)amino]-3-azabicyclo[3.1.0]hex-3-yl}pyrimidine-5-carboxamide trifluoroacetate], for which the IC50 is less than 330 nM in the experiment on U937, less than 100 nM in experiment [1], less than 330 nM in the experiment on HUT and less than 330 nM in the experiment with HeLa cells.

On to `O=C(NO)c1cnc(N2CC3C(C2)C3NS(=O)(=O)c2cccs2)nc1` (stereo not drawn) [Example 2, N-Hydroxy 2-{6-[(thien-2-ylsulfonyl)amino]-3-azabicyclo[3.1.0]hex-3-yl}pyrimidine-5-carboxamide], for which the IC50 with U937, in the experiment with HUT and in the experiment with HeLa cells was more than 3300 nM each time.

As for `O=C(NO)c1cnc(N2CC3C(C2)C3NS(=O)(=O)c2cc(C(F)(F)F)cc(C(F)(F)F)c2)nc1` (stereo not drawn) [Example 3, N-Hydroxy 2-(6-{[(3,5-bistrifluoromethylphenyl)sulfonyl]amino}-3-azabicyclo[3.1.0]hex-3-1/1)pyrimidine-5-carboxamide], the IC50 in the experiment with U937 is less than 330 nM; in experiment [1], less than 100 nM; with HUT, less than 330 nM; in the experiment with HeLa cells it was 331 to 3300 nM.

In the case of `O=C(NO)c1cnc(N2CC3C(C2)C3NS(=O)(=O)c2ccc(OC(F)(F)F)cc2)nc1` (stereo not drawn) [Example 4, N-Hydroxy 2-(6-{[(4-trifluoromethoxyphenyl)sulfonyl]amino}-3-azabicyclo[3.1.0]hex-3-yl)pyrimidine-5-carboxamide], the half-inhibitory concentration (IC50) in the experiment with U937 was less than 330 nM; in experiment [1] it was less than 100 nM; in the experiment on HUT, less than 330 nM; with HeLa cells it was 331 to 3300 nM.

As to `O=C(NO)c1cnc(N2CC3C(C2)C3NC(=O)c2ccc3ccccc3c2)nc1` (stereo not drawn) [Example 5, N-Hydroxy 2-{6-[(naphthalene-2-carbonyl)amino]-3-aza-bicyclo[3.1.0]hex-3-yl}pyrimidine-5-carboxamide], the concentration for half-maximal inhibition (IC50) in the experiment with U937 is 331 to 3300 nM; in experiment [1] it was less than 100 nM; in the experiment on HUT, less than 330 nM; in the experiment with HeLa cells, 331 to 3300 nM.

`O=C(Cc1ccc(N2CCCS2(=O)=O)cc1)NC1C2CN(c3ncc(C(=O)NO)cn3)CC21` (stereo not drawn) [Example 6, N-Hydroxy 2-(6-{2-[4-(1,1-dioxoisothiazolidin-2-yl)phenyl]acetylamino}-3-azabicyclo[3.1.0]hex-3-yl)pyrimidine-5-carboxamide]: the IC50 with U937 was more than 3300 nM; in experiment [1], less than 100 nM; in the experiment with HUT it was more than 3300 nM; in the experiment on HeLa cells, more than 3300 nM.

With `O=C(CCCCc1ccccc1)NC1C2CN(c3ncc(C(=O)NO)cn3)CC21` (stereo not drawn) [Example 7, N-Hydroxy 2-[6-(5-phenylpentanoylamino)-3-azabicyclo[3.1.0]hex-3-yl]pyrimidine-5-carboxamide], the IC50 was 331 to 3300 nM with U937, less than 100 nM in experiment [1], 331 to 3300 nM in the experiment on HUT and 331 to 3300 nM in the experiment on HeLa cells.

For `O=C(CCCCCc1ccccc1)NC1C2CN(c3ncc(C(=O)NO)cn3)CC21` (stereo not drawn) [Example 8, N-Hydroxy 2-[6-(6-phenylhexanoyl)amino-3-azabicyclo[3.1.0]hex-3-yl]-pyrimidine-5-carboxamide], the values for the IC50 in the experiment with U937, with HUT and with HeLa cells were 331 to 3300 nM, less than 330 nM and 331 to 3300 nM, respectively.

As to `O=C(NO)c1cnc(N2CC3C(C2)C3NC(=O)C2(c3ccccc3)CC2)nc1` (stereo not drawn) [Example 9, N-Hydroxy 2-(6-{[(1-phenylcyclopropyl)carbonyl]amino}-3-azabicyclo[3.1.0]hex-3-yl)pyrimidine-5-carboxamide], the IC50 is 331 to 3300 nM in the experiment with U937, less than 100 nM in experiment [1], 331 to 3300 nM in the experiment with HUT and 331 to 3300 nM with HeLa cells.

Regarding `CC(C(=O)NC1C2CN(c3ncc(C(=O)NO)cn3)CC21)c1ccccc1` (stereo not drawn) [Example 10, N-Hydroxy 2-{6-[(2-phenylpropanoyl)amino]-3-azabicyclo[3.1.0]hex-3-yl}pyrimidine-5-carboxamide], the IC50 with U937 is 331 to 3300 nM; in experiment [1], less than 100 nM; in the experiment with HUT, 331 to 3300 nM; in the experiment with HeLa cells, 331 to 3300 nM.

As to `O=C(Cc1ccsc1)NC1C2CN(c3ncc(C(=O)NO)cn3)CC21` (stereo not drawn) [Example 11, N-Hydroxy 2-{6-[(thien-3-ylacetyl)amino]-3-azabicyclo[3.1.0]hex-3-yl}pyrimidine-5-carboxamide], the IC50 in the experiment on U937 is more than 3300 nM; in experiment [1], less than 100 nM; in the experiment with HUT it was 331 to 3300 nM; with HeLa cells it was 331 to 3300 nM.

Consider `O=C(NO)c1cnc(N2CC3C(C2)C3NC(=O)C2CCCCC2)nc1` (stereo not drawn) [Example 12, N-Hydroxy 2-{6-[(cyclohexylcarbonyl)amino]-3-azabicyclo[3.1.0]hex-3-yl}pyrimidine-5-carboxamide], for which the IC50 in the experiment with U937 was 331 to 3300 nM; in experiment [1], less than 100 nM; in the experiment with HUT, 331 to 3300 nM; with HeLa cells it was 331 to 3300 nM.

For `O=C(NO)c1cnc(N2CC3C(C2)C3NC(=O)c2ccccc2)nc1` (stereo not drawn) [Example 13, N-Hydroxy 2-[6-(benzoylamino)-3-azabicyclo[3.1.0]hex-3-yl]pyrimidine-5-carboxamide], the IC50 in the experiment with U937, in the experiment on HUT and with HeLa cells was 331 to 3300 nM each time.

For the compound `Cn1cc(CC(=O)NC2C3CN(c4ncc(C(=O)NO)cn4)CC32)c2ccccc21` (stereo not drawn) [Example 14, N-Hydroxy 2-{6-[2-(1-methyl-1H-indol-3-yl)acetylamino]-3-aza-bicyclo[3.1.0]hex-3-yl}pyrimidine-5-carboxamide], the IC50 is 331 to 3300 nM in the experiment on U937, less than 100 nM in experiment [1], 331 to 3300 nM in the experiment with HUT and 331 to 3300 nM in the experiment with HeLa cells.

For `O=C(CCCOc1ccccc1)NC1C2CN(c3ncc(C(=O)NO)cn3)CC21` (stereo not drawn) [Example 15, N-Hydroxy 2-[6-(4-phenoxybutyrylamino)-3-azabicyclo[3.1.0]hex-3-yl]pyrimidine-5-carboxamide], the IC50 is 331 to 3300 nM with U937, less than 100 nM in experiment [1], 331 to 3300 nM with HUT and 331 to 3300 nM with HeLa cells.

As to `O=C(NO)c1cnc(N2CC3C(C2)C3NC(=O)c2ccc3sccc3c2)nc1` (stereo not drawn) [Example 17, N-Hydroxy 2-{6-[(1-benzothien-5-ylcarbonyl)amino]-3-azabicyclo[3.1.0]hex-3-yl}pyrimidine-5-carboxamide], the IC50 was 331 to 3300 nM with U937, less than 330 nM with HUT and 331 to 3300 nM in the experiment with HeLa cells.

On to `COc1ccc(CNC2C3CN(c4ncc(C(=O)NO)cn4)CC32)cc1` (stereo not drawn) [Example 21, N-Hydroxy 2-{6-[(4-methoxybenzyl)amino]-3-azabicyclo[3.1.0]hex-3-yl}pyrimidine-5-carboxamide], for which the IC50 in the experiment on U937 was less than 330 nM; in the experiment with HUT it was less than 330 nM; in the experiment with HeLa cells, 331 to 3300 nM.

With `O=C(NO)c1cnc(N2CC3C(C2)C3NCC2CCCCC2)nc1` (stereo not drawn) [Example 25, N-Hydroxy 2-{6-[(cyclohexylmethyl)amino]-3-azabicyclo[3.1.0]hex-3-yl}pyrimidine-5-carboxamide], the IC50 in the experiment on U937, with HUT and in the experiment with HeLa cells was less than 330 nM throughout.

Take `O=C(NO)c1cnc(N2CC3C(C2)C3NCc2ccc(Br)cc2)nc1` (stereo not drawn) [Example 36, N-Hydroxy 2-{6-[(4-bromobenzyl)amino]-3-azabicyclo[3.1.0]hex-3-yl}pyrimidine-5-carboxamide]: the IC50 in the experiment with U937 is less than 330 nM; in experiment [1], less than 100 nM; in the experiment on HUT, less than 330 nM.

On to `CN(C)CCCN(C1C2CN(c3ncc(C(=O)NO)cn3)CC21)S(=O)(=O)c1ccc2ccccc2c1` (stereo not drawn) [Example 50, N-Hydroxy 2-{6-[(3-dimethylaminopropyl)(naphthalene-2-sulfonyl)amino]-3-azabicyclo[3.1.0]hex-3-yl}pyrimidine-5-carboxamide], for which the IC50 is less than 330 nM with U937, less than 100 nM in experiment [1] and less than 330 nM in the experiment on HUT.

For the compound `CN(C)CCN(C1C2CN(c3ncc(C(=O)NO)cn3)CC21)S(=O)(=O)c1ccc2ccccc2c1` (stereo not drawn) [Example 52, N-Hydroxy 2-{6-[(2-dimethylaminoethyl)(naphthalene-2-sulfonyl)-amino]-3-azabicyclo[3.1.0]hex-3-yl}pyrimidine-5-carboxamide], the values for the IC50 in the experiment on U937, in the experiment with HUT and in the experiment on HeLa cells were 331 to 3300 nM, less than 330 nM and 331 to 3300 nM, respectively.
